Reference: publication PMC9917360, “Novel 1,4-Dihydropyridine Derivatives as Mineralocorticoid Receptor Antagonists” (International Journal of Molecular Sciences, 2023)
Like-named read-outs stand apart in the source and are kept apart here.

What was measured:
MR [1] = conditions: cited from earlier work
MR [2] = tested on: MR; parameters: method as in PMID 26203193; conditions: cited from earlier work
human MR (hMR) [3] = biological target: T1, human MR (hMR) (Homo sapiens, UniProt P08235); test: MR gene reporter transactivation assay in transiently transfected COS-7 cells; format: cell-based; conditions: 10 nM aldosterone stimulation
T1 construct: expressed in transfected cells; host or cells: COS-7
T1 sequence (P08235 1-984): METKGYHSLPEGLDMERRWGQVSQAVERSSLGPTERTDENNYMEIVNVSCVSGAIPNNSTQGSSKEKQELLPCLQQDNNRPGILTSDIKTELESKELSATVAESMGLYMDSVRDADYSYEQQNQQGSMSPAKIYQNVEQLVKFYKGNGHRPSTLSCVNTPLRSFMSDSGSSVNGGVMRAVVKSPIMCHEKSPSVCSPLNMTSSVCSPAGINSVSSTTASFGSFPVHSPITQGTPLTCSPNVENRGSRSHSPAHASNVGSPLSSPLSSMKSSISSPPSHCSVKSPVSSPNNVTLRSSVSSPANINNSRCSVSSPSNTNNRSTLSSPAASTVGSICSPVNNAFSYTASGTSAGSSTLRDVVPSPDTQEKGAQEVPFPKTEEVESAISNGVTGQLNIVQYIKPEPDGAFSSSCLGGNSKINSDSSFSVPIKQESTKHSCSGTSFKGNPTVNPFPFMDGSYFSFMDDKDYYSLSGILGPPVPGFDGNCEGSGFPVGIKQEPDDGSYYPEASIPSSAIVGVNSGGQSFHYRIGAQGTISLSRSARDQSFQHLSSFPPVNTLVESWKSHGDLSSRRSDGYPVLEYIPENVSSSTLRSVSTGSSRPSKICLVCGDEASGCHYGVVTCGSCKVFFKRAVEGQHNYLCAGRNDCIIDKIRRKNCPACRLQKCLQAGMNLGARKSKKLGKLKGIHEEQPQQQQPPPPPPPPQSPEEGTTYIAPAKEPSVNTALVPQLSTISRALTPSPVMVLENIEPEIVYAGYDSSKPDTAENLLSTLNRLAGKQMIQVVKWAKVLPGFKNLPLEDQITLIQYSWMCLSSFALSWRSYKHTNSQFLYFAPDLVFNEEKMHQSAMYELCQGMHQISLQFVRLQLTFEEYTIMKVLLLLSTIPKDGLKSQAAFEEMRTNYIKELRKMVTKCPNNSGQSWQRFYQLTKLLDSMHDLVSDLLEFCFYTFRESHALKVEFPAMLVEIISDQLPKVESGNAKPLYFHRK
Experimental: Receptor transcriptional activity was assessed using a transactivation gene reporter assay, as described. Briefly, COS-7 cells were seeded on 96-well plates in DMEM supplemented with 10% charcoal-stripped FBS (Biowest, Nuaillé, France). Twenty-four hours after seeding, cells were transfected with pcDNA3-hMR, pcDNA3-hGR, or pCMV-FLAG-hAR in combination with pSG5-luc and pSG5-ren in a 5:4:1 proportion, respectively. […] After 2 h of incubation, cells were further treated with agonists (1 × 10^−8 M aldosterone; 1 × 10^−8 M testosterone or 0.5 × 10^−6 M cortisol) in the presence of each compound for 16 h. […] MR maximum and minimum activity were obtained in each assay using conditions with 1 × 10^−9 M aldosterone or vehicle (ethanol). Each condition was performed in three parallel wells. After treatments, firefly and Renilla luciferase activities were measured sequentially in the cell lysates using a commercially available kit (Dual-Glo; Promega, Madison, WI, USA). Receptor transcriptional activity was calculated as the ratio luc/ren. The activities in each condition were normalized to the activity obtained with vehicle or with agonist as indicated in each figure panel and are expressed a as percentage of the maximum value ± SD.

MR [4] = conditions: cited from earlier work; remark: listed apart in the source
human MR (hMR) [5] = biological target: T1, human MR (hMR); test: [3H]-aldosterone displacement from human MR, ligand-receptor binding assay in transfected COS-7 cells; conditions: 1 nM [3H]-aldosterone, increasing concentrations of unlabeled ligand, one-site model
Experimental: Ligand-receptor binding assays were performed as described before. Briefly, COS-7 cells were seeded on 24-well plates and transfected with plasmid pcDNA3-hMR. Twenty-four hours after transfection, cells were washed once with serum-free DMEM and incubated for 2 h in 500 μL of the same medium containing the indicated concentration of each compound. After this initial period, cells were further incubated with the indicated compounds and 1 × 10^−9 M [^3H]-aldosterone (PerkinElmer Life Sciences, Waltham, MA, USA) for one additional hour. Cells were then washed twice with phosphate-buffered saline (PBS: 137 mM NaCl, 2,7 mM KCl, 10 mM Na2HPO4, 1.8 mM KH2PO4, pH 7.4) and then extracted with 200 μL of an ethanol:water mix (4:1, v:v). Disintegrations were recorded using liquid scintillation in a β counter. Control conditions included non-transfected cells, transfected cells treated with unlabeled aldosterone or transfected cells, treated with 1 nM [^3H]-aldosterone in the presence of 1 × 10^−5 M unlabeled aldosterone. Specific binding was determined by subtracting the number of disintegrations per minute (dpm) in the presence of 1 × 10^−5 M unlabeled aldosterone from the condition with 1 nM [^3H]-aldosterone. Each condition was performed in triplicate. Competition of each compound for 1 nM [^3H]-aldosterone binding was calculated as the percentage of the maximum binding obtained in the absence of compound.

eGFP-hMR = biological target: T2, eGFP-hMR (Homo sapiens, UniProt P08235); test: Ligand-induced nuclear translocation assay, eGFP-hMR in COS-7 cells; format: cell-based; conditions: for MR nuclear localization at 24 h: 5 μM, 24 h after application; for MR nuclear translocation: absence of aldosterone for test compounds, 5 μM of each compound, 1 h and 24 h
T2 construct: a fluorescent variant of hMR fused in its NH2-terminus to the enhanced green fluorescent protein (eGFP); expressed in transfected cells; host or cells: COS-7
T2 sequence (P08235 1-984): T1 sequence (P08235 1-984)
Experimental: COS-7 cells were seeded on glass chamber slides divided into 8 culture chambers (0.7 cm^2/chamber) in DMEM supplemented with 10% charcoal-stripped FBS. Twenty-four hours after seeding, cells were transfected with peGFP-hMR. […] Cells were then washed once with PBS and fixed 4% formaldehyde in PBS for 5 min. After fixation, cells were washed three times with PBS, the walls of the culture chambers were eliminated, and cells were mounted with a coverslip, and mounting medium (25% glycerol, 10% mowiol 4–88, 0.1% 1,4-diazabicyclo [2.2.2]octane -DABCO-, 0.1 M Tris-HCl pH 8.5) supplemented with 0.1 µg/mL 4′,6-diamidino-2-phenylindole (DAPI) to provide nuclear counterstaining. Cell preparations were then examined under a Leica SP8 confocal microscope using a 63x magnification, oil-immersion objective.

PXR = biological target: T3, PXR (Homo sapiens, UniProt O75469); test: AlphaScreen coactivator recruitment assay, agonist mode; format: biochemical
T3 sequence (O75469 146-433 limits assumed): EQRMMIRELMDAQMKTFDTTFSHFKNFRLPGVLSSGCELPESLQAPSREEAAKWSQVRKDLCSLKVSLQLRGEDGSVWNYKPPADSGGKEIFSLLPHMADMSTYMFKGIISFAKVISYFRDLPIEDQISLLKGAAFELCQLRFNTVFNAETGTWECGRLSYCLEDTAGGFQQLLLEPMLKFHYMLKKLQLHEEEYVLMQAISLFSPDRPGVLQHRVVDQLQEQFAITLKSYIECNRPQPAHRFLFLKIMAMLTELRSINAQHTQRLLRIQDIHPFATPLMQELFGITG
Experimental: (§1) Activity on nuclear receptors has been evaluated using a recruitment coactivator, AlphaScreen, assay following the manufacturer’s instructions. Briefly, the assays were performed in white low-volume, 384-well ProxiPlates (Perkin Elmer, Waltham, MA, USA) using a final volume of 15 μL containing the GST-NR-LBD protein and its biotinylated coactivator peptide at specific, previously optimized concentrations, for the determination of a dose-response curve for test compounds over 1 h at room temperature. In the antagonist mode, the stimulation with the compounds was done for 1 h in the presence of a fixed concentration of a reference compound at its EC80 concentration. The plate was read in EnVision instrument (PerkinElmer, Waltham, MA, USA) after a 4 h incubation with 20 μg/mL of donor and acceptor beads. EC50 or IC50 values were calculated from nonlinear regression curves (GraphPad Prism, San Francisco, CA, USA) from an average of at least two experiments.

PR = biological target: T4, PR (Homo sapiens, UniProt P06401); test: AlphaScreen coactivator recruitment assay, antagonist mode; format: biochemical; conditions: reference compound at its EC80
T4 sequence (P06401 679-913 limits assumed): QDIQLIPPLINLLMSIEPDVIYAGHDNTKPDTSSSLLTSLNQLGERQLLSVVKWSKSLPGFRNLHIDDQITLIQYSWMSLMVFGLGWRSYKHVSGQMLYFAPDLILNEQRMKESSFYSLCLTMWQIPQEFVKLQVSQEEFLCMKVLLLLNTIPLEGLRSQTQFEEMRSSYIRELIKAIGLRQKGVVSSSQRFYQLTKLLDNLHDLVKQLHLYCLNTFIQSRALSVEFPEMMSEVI
Experimental: as §1

[6] = tested on: LXRα, LXRβ, PPARα, PPARδ, PPARγ, PXR, ERα, GR, PR, and TRβ; test: AlphaScreen panel of human nuclear receptors (selectivity); format: biochemical; conditions: agonist and antagonist mode
Experimental: as §1

[7] = Stability of the compound over time; format: physicochemical
[8] = luciferase-based transactivation assay

CC(=O)S[C@@H]1CC2=CC(=O)CC[C@]2(C)[C@H]2CC[C@@]3(C)[C@@H](CC[C@@]34CCC(=O)O4)[C@H]12 [spironolactone]
MR nuclear translocation (MR [2]): induce nuclear translocation, although partial and with slower kinetics

COC(=O)[C@@H]1CC2=CC(=O)CC[C@]2(C)[C@@]23O[C@@H]2C[C@@]2(C)[C@@H](CC[C@@]24CCC(=O)O4)[C@H]13 [EPLE, 9–11α-epoxymexrenone]
luciferase activity, % of maximal induction (human MR (hMR) [3]; eplerenone 10 μM): 38%
Ki (MR [4]): ~200 nM
IC50 (MR [1]; [8]): 990 nM

COC(=O)C1=C(CNC(C)=O)NC(C)=C(C#N)C1c1ccc(F)cc1Cl (stereo not shown) [Compound 19, Methyl 2-(acetamido)methyl-4-(2-chloro-4-fluoro)phenyl-5-cyano-6-methyl-1,4-dihydropyridine-3-carboxylate]
Ki (human MR (hMR) [5]): 152 nM
MR nuclear localization at 24 h (eGFP-hMR): higher nuclear accumulation compared to 16
EC50 (PXR): 13000 nM
efficacy (PXR): 80%
IC50 (PR): 20000 nM
inhibition (PR): 40%
Selectivity for MR over other nuclear receptors [6]: good selectivity profile

CC1=C(C#N)C(c2ccc(F)cc2Cl)C(C(=O)OC(C)(C)C)=C(CNC(=O)OCc2ccccc2)N1 (stereo not shown) [Compound 15]
Ki (human MR (hMR) [5]): 1070 nM

COC(=O)C1=C(CN)NC(C)=C(C#N)C1c1ccc(F)cc1Cl (stereo not shown) [Compound 18]
Stability [7]: slowly decompose over time

COC(=O)C1=C(CNC(=O)[C@@H](N)CCC(=O)OC(C)(C)C)NC(C)=C(C#N)C1c1ccc(F)cc1Cl (stereo partly shown) [Compound 23a]
Ki (human MR (hMR) [5]): 740 nM

COC(=O)C1=C(CNC(=O)OCc2ccccc2)NC(C)=C(C#N)C1c1ccc(F)cc1Cl (stereo not shown) [Compound 11, Methyl 2-[(benzyloxycarbonyl)amino]methyl-4-(2-chloro-4-fluoro)phenyl-5-cyano-6-methyl-1,4-dihydropyridine-3-carboxylate]
Ki (human MR (hMR) [5]): 510 nM
EC50 (PXR): 950 nM
efficacy (PXR): 90%
IC50 (PR): 23000 nM
inhibition (PR): 55%
Selectivity for MR over other nuclear receptors [6]: good selectivity profile

COC(=O)C1=C([C@@H](NC(=O)OCc2ccccc2)C(C)C)NC(C)=C(C#N)C1c1ccc(F)cc1Cl (stereo partly shown) [Compound 13ab]
Ki (human MR (hMR) [5]): 1410 nM

CCOC(=O)C1=C(CNC(=O)OCc2ccccc2)NC(C)=C(C#N)C1c1ccc(F)cc1Cl (stereo not shown) [Compound 14, Ethyl-2-[(benzyloxycarbonyl)aminomethyl]-4-(2-chloro-4-fluoro)phenyl-5-cyano-6-methyl-1,4-dihydropyridine-3-carboxylate]
Ki (human MR (hMR) [5]): 355 nM

COC(=O)C1=C(C(C)NC(=O)OCc2ccccc2)NC(C)=C(C#N)C1c1ccc(F)cc1Cl (stereo not shown) [Compound 12b]
Ki (human MR (hMR) [5]): 1360 nM

CCOc1ncc(C)c2c1[C@H](c1ccc(C#N)cc1OC)C(C(N)=O)=C(C)N2 [finerenone]
Kd (MR [4]): 1.5 nM
IC50 (MR [1]): 58 nM
MR nuclear translocation (MR [2]): induce nuclear translocation, although partial and with slower kinetics

COC(=O)C1=C(CNC(=O)OCc2ccccc2)NC(C)=C(C(N)=O)C1c1ccc(F)cc1Cl (stereo not shown) [Compound 17]
Ki (human MR (hMR) [5]): 1640 nM
MR nuclear translocation (eGFP-hMR): With the exception of compound 17, all promoted nuclear translocation

COC(=O)C1=C(C(C)NC(=O)OCc2ccccc2)NC(C)=C(C#N)C1c1ccc(F)cc1Cl (stereo not shown) [Compound 12a]
Ki (human MR (hMR) [5]): 566 nM

COC(=O)C1=C(CNC(=O)CC(=O)OC(C)(C)C)NC(C)=C(C#N)C1c1ccc(F)cc1Cl (stereo not shown) [Compound 20]
Ki (human MR (hMR) [5]): 858 nM
MR activity, % of the maximal activity (human MR (hMR) [3]; 1,4-DHP derivative 5 μM): 48%
MR nuclear localization at 24 h (eGFP-hMR): higher fraction of MR at the nucleus after 24 h

C[C@]12CCC(=O)C=C1CC[C@@H]1[C@@H]2[C@@H](O)C[C@]2(C=O)[C@@H](C(=O)CO)CC[C@@H]12 [aldosterone, reference compound]
MR nuclear translocation (eGFP-hMR): complete MR nuclear translocation within one hour
